Columns and labels:
[1] = biological target: Recombinant human KAT6A protein (497-780) (Homo sapiens (Human), UniProt Q92794); experiment: KAT6A biochemical TR-FRET assay; conditions: histone H4 peptide 2000 nM, AcCoA 300 nM, enzyme 5 nM
[2] = biological target: Recombinant human KAT6B protein (657-1069) (Homo sapiens (Human), UniProt Q8WYB5); experiment: KAT6B biochemical TR-FRET assay; conditions: histone H4 peptide 1000 nM, AcCoA 100 nM, enzyme 5 nM
[3] = test system: histone H3K23 acetylation in U-2 OS cells; experiment: Histone H3 lysine 23 acetylation assay in U-2 OS cells (high content analysis); format: cell-based; conditions: Homo sapiens, U2OS, 24 hrs exposure, H3K23ac level
Outline: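 U-2 OS cells seeded overnight, then exposed 24 h to a 9-point compound dilution series; 0.1% DMSO medium as blank. Fixed, permeabilised, stained with anti-H3K23ac plus Alexa Fluor 647 secondary and DAPI; nuclear H3K23ac intensity read by high-content imaging. Inhibition = mean per-well cell intensity relative to on-plate blanks.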

Recombinant human KAT6A protein (497-780), sequence (Q92794 497-780): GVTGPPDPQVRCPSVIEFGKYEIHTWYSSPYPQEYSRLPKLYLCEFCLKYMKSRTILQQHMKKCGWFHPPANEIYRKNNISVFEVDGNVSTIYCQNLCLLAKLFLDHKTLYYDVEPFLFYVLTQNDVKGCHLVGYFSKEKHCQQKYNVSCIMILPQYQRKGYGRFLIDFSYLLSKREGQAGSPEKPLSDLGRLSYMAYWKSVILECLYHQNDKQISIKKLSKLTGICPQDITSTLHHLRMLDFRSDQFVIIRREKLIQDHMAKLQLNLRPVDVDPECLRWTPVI
Recombinant human KAT6B protein (657-1069), sequence (Q8WYB5 657-1069): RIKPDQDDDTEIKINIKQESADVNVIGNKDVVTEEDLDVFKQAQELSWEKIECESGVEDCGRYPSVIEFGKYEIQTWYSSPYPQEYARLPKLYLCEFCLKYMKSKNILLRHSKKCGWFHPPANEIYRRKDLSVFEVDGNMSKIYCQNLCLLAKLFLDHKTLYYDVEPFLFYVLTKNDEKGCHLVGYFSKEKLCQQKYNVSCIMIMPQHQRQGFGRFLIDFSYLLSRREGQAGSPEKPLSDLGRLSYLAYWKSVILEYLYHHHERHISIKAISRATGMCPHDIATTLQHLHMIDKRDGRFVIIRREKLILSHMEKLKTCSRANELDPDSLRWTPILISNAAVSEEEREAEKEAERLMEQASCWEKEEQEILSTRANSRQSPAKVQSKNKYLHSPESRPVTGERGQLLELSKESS

IC50 [1] [nM] | IC50 [2] [nM] | IC50 [3] [nM] | SMILES
≤ 5 | ≤ 5 | ≤ 10 | CCc1nc(C(=O)NS(=O)(=O)c2c(OC)ccc3c2OCC3(C)C)ccc1Cn1cccn1 [Example C53, 5-((1H-pyrazol-1-yl)methyl)-6-ethyl-N-((6-methoxy-3,3-dimethyl-2,3-dihydrobenzofuran-7-yl)sulfonyl)picolinamide]
≤ 5 | ≤ 5 | ≤ 10 | COc1ccc(C(C)(C)C(F)(F)F)nc1S(=O)(=O)NC(=O)c1ccc(Cn2cccn2)c(OC)n1 [Example C54, 5-((1H-pyrazol-1-yl)methyl)-6-methoxy-N-((3-methoxy-6-(1,1,1-trifluoro-2-methylpropan-2-yl)pyridin-2-yl)sulfonyl)picolinamide]
≤ 5 | ≤ 5 | ≤ 10 | COc1ccc2c(c1S(=O)(=O)NC(=O)c1ccc(Cn3cccn3)c(OC)n1)OCC(C)(C)C2 [Example C55, 5-((1H-pyrazol-1-yl)methyl)-6-methoxy-N-((7-methoxy-3,3-dimethylchroman-8-yl)sulfonyl)picolinamide]
≤ 5 | ≤ 5 | ≤ 10 | COc1ccc(C2(OC)CC2)cc1S(=O)(=O)NC(=O)c1ccc(Cn2cccn2)c(OC)n1 [Example C56, 5-((1H-pyrazol-1-yl)methyl)-6-methoxy-N-((2-methoxy-5-(1-methoxycyclopropyl)phenyl)sulfonyl)picolinamide]
≤ 5 | ≤ 5 | ≤ 10 | COCC(C)(C)c1ccc(OC)c(S(=O)(=O)NC(=O)c2ccc(Cn3cccn3)c(OC)n2)c1 [Example C57, 5-((1H-pyrazol-1-yl)methyl)-6-methoxy-N-((2-methoxy-5-(1-methoxy-2-methylpropan-2-yl)phenyl)sulfonyl)picolinamide]
≤ 5 | ≤ 5 | ≤ 10 | COc1ccc2c(c1S(=O)(=O)NC(=O)c1ccc(Cn3cccn3)c(OC)n1)OCC2 [Example C58, 5-((1H-pyrazol-1-yl)methyl)-6-methoxy-N-((6-methoxy-2,3-dihydrobenzofuran-7-yl)sulfonyl)picolinamide]
≤ 5 | ≤ 5 | ≤ 10 | COc1ccc(C2(C(F)(F)F)CC2)cc1S(=O)(=O)NC(=O)c1ccc(Cn2cccn2)c(OC)n1 [Example C59, 5-((1H-pyrazol-1-yl)methyl)-6-methoxy-N-((2-methoxy-5-(1-(trifluoromethyl)cyclopropyl)phenyl)sulfonyl)picolinamide]
≤ 5 | ≤ 5 | ≤ 10 | COc1ccc2c(c1S(=O)(=O)NC(=O)c1ccc(Cn3cccn3)c(OC)n1)OCC21CCC1 [Example C60, 5-((1H-pyrazol-1-yl)methyl)-6-methoxy-N-((6-methoxy-2H-spiro[benzofuran-3,1′-cyclobutan]-7-yl)sulfonyl)picolinamide]
≤ 5 | ≤ 5 | ≤ 10 | COc1cc2c(cc1S(=O)(=O)NC(=O)c1ccc(Cn3cccn3)c(OC)n1)C(C)(C)CO2 [Example C61, 5-((1H-pyrazol-1-yl)methyl)-6-methoxy-N-((6-methoxy-3,3-dimethyl-2,3-dihydrobenzofuran-5-yl)sulfonyl)picolinamide]
≤ 5 | ≤ 5 | ≤ 10 | COc1ccc(N2CC3CCC(C2)O3)cc1S(=O)(=O)NC(=O)c1ccc(Cn2cccn2)c(OC)n1 [Example C62, 5-((1H-pyrazol-1-yl)methyl)-N-((5-(8-oxa-3-azabicyclo[3.2.1]octan-3-yl)-2-methoxyphenyl)sulfonyl)-6-methoxy-picolinamide]
≤ 5 | ≤ 5 | ≤ 10 | [2H]C([2H])([2H])Oc1nc(C(=O)NS(=O)(=O)c2nc(C(C)(C)C)ccc2OC)ccc1Cn1cccn1 [Example C63, 5-((1H-pyrazol-1-yl)methyl)-N-((6-(tert-butyl)-3-methoxypyridin-2-yl)sulfonyl)-6-(methoxy-d3)picolinamide]
≤ 5 | ≤ 5 | ≤ 10 | [2H]C([2H])([2H])Oc1nc(C(=O)NS(=O)(=O)c2c(OC)ccc3c2OCC3(C)C)ccc1Cn1cccn1 [Example C64, 5-((1H-pyrazol-1-yl)methyl)-6-(methoxy-d3)-N-((6-methoxy-3,3-dimethyl-2,3-dihydrobenzofuran-7-yl)sulfonyl) picolinamide]
≤ 5 | ≤ 5 | ≤ 10 | [2H]C([2H])([2H])Oc1nc(C(=O)NS(=O)(=O)c2c(OC)ccc3c2OC(C)(C)C3)ccc1Cn1cccn1 [Example C65, 5-((1H-pyrazol-1-yl)methyl)-6-(methoxy-d3)-N-((6-methoxy-2,2-dimethyl-2,3-dihydrobenzofuran-7-yl)sulfonyl) picolinamide]
≤ 5 | ≤ 5 | ≤ 10 | [2H]C([2H])([2H])Oc1ccc(C(C)(C)C)nc1S(=O)(=O)NC(=O)c1ccc(Cn2cccn2)c(OC)n1 [Example C66, 5-((1H-pyrazol-1-yl)methyl)-N-((6-(tert-butyl)-3-(methoxy-d3)pyridin-2-yl)sulfonyl)-6-methoxy-picolinamide]
≤ 5 | ≤ 5 | ≤ 10 | COc1ccc(C2(OC)COC2)cc1S(=O)(=O)NC(=O)c1ccc(Cn2cccn2)c(OC)n1 [Example C67, 5-((1H-pyrazol-1-yl)methyl)-6-methoxy-N-((2-methoxy-5-(3-methoxyoxetan-3-yl)phenyl)sulfonyl) picolinamide]
5 to 50 | ≤ 5 | ≤ 10 | COc1ccccc1S(=O)(=O)NC(=O)c1ccc(Cn2cccn2)c(OC)n1 [Example C68, 5-((1H-pyrazol-1-yl)methyl)-6-methoxy-N-((2-methoxyphenyl)sulfonyl) picolinamide]
≤ 5 | ≤ 5 | ≤ 10 | COc1ccc(C2(C)CCOCC2)cc1S(=O)(=O)NC(=O)c1ccc(Cn2cccn2)c(OC)n1 [Example C70, 5-((1H-pyrazol-1-yl)methyl)-6-methoxy-N-((2-methoxy-5-(4-methyltetrahydro-2H-pyran-4-yl)phenyl)sulfonyl) picolinamide]
≤ 5 | ≤ 5 | ≤ 10 | COc1ccc2c(c1S(=O)(=O)NC(=O)c1ccc(Cn3cccn3)c(OC)n1)OCC21CCOCC1 [Example C71, 5-((1H-pyrazol-1-yl)methyl)-6-methoxy-N-((6-methoxy-2′,3′,5′,6′-tetrahydro-2H-spiro[benzofuran-3,4′-pyran]-7-yl)sulfonyl) picolinamide]
≤ 5 | ≤ 5 | ≤ 10 | COc1cnc(C(C)(C)C)cc1S(=O)(=O)NC(=O)c1ccc(Cn2cccn2)c(OC)n1 [Example C72, 5-((1H-pyrazol-1-yl)methyl)-N-((2-(tert-butyl)-5-methoxypyridin-4-yl)sulfonyl)-6-methoxy-picolinamide]
≤ 5 | ≤ 5 | ≤ 10 | COc1ccc(C2COCCN2C)cc1S(=O)(=O)NC(=O)c1ccc(Cn2cccn2)c(OC)n1 (stereo not drawn) [Example C73, 5-((1H-pyrazol-1-yl)methyl)-6-methoxy-N-((2-methoxy-5-(4-methylmorpholin-3-yl)phenyl)sulfonyl) picolinamide]

From patent publication US20250304535A1, “KAT6 Inhibitors” (BeiGene Switzerland GmbH, priority 2024, published 2025)
